# Like-named read-outs stand apart in the source and are kept apart here.
# Legend:
# [1] = Analysis of salicylic acid and its metabolites in urines of treated mice (HPLC-MRM-MS); format: in vivo; conditions: for share of ingested SA found in the urines in this form: Filipendula ulmaria extract with 1.3% SA, total 40 mg in 8 doses over 24 h, oral
# Method: A: Comparison of RT from analytical standards of salicylic acid (SA) (1) and its metabolites […] (DHBA) (2) and salicyluric acid (SUA) (3) and peaks found in urine samples collected from the group treated with Filipendula ulmaria extract (Fil). Analysis was performed on a SunFire™ C18 ([…], 3.0 mm×150 mm) column (Waters). 5% MeCN (A) and MeCN (B) both containing 0.1% of formic acid were used as mobile phase. A gradient of 0 to 100% B in 20 min was applied at a flow rate of 0.8 mL/min. B: Concentration, amounts (in samples collected over a 3-hour-period) and cumulative amounts of salicylic acid (SA) (1) and its metabolites 2,3-dihydroxybenzoic acid (DHBA) (2) and salicyluric acid (SUA) (3) found in urine samples collected from groups treated with Filipendula ulmaria extract (F). Cumulative amounts are the cumulated amounts of the respective compounds in the urine over time up to the indicated timepoint. Numbers on x-axis indicate collection time. Analysis was performed by HPLC-MRM-MS using the chromatographic conditions described in A.
# The urines collected from control groups as described in Example 3 were compared against urines collected from mice treated with different combinations of plant extracts. The urines were analyzed using HPLC-UV/MS on a SunFire C18 column column. 5% MeCN (A) and MeCN (B) both containing 0.1% of formic acid were used as mobile phase. A gradient of 0 to 100% B in 20 min was applied at a flow rate of 0.8 mL/min. MS scans were recorded in positive and negative ion modes (ESI+/−). Major additional peaks in the groups treated with a mixture of Filipendula ulmaria-Epilobium parviflorum were identified as salicylic acid (SA) (1), 2,3-dihydroxybenzoic acid (DHBA) (2), and salicyluric acid (SUA) (3). FIG. 3A compares the RT from analytical standards of salicylic acid (SA) (1) and its metabolites salicyluric acid (SUA) ([…]) and 2,3-dihydroxybenzoic acid (DHBA) (2), and peaks found in urine samples collected from groups treated with Filipendula extracts. The exact mass of the three molecules was confirmed using high-resolution mass spectrometry. Further, the three identified metabolites were quantified in the urine samples by MRM—with the following transitions (m z): 136.5→65.0, 136.5→92.9 (SA); 152.9→108.9, 152.9→80.9 (DHBA); 194.0→150.0, 194.0→92.9 (SUA) and pure analytical standards that were diluted in urine from negative controls for the calibration curve.
# The amounts of SA, SUA et DHBA were quantified in the urine of mice after absorption of an extract of Filipendula ulmaria containing 1.3% of SA at a total dose of 40 mg divided in 8 equal doses over 24 h as described above (Example 3, in-vivo efficacy studies).
# E. coli = assay: In vitro antibacterial assay (MIC), E. coli growth in solution in 96-well plates, plate counting; format: cell-based; conditions: for MIC: Escherichia coli
# Method: E. coli growth in solution was measured in 96-well plates. Absence and presence of different concentrations of the test agent during exponential growth determined the MIC (minimal inhibitory concentration) value. E. coli enumeration was by the plate-counting method (ufc) as described above.
# E. coli CFT073 = assay: In vivo UTI mouse model: living E. coli in bladder homogenates (bladder adhesion); design: species or system mice
# Excerpt: (§1) An in vivo test of UTI (urinary tract infection) was established and implemented for the identification of active plant extracts and compounds. […] which were age matched females were adapted to the clean, non-septic laboratory conditions. The experiment started with a 2 days nutrition enriched by glucose in order to facilitate the subsequent UTI infection. Each compound, or plant extract was then applied at various concentrations by 8 consecutive intestinal ingestions by gavage-devices over the duration of 24 h. Each ingestion comprised a volume of 100 μL solution. During these 24 h the mice were hold in metabolic cages. The urine was collected every 3 h to analyze diuresis effects. For the subsequent UTI infection*, the isolate E. coli CFT073 (commercially available at DSM, originating from human UTI) was applied trans-urethral into the bladder and incubated in vivo for a 3 h duration and free movements in normal cages. Mice were euthanized and living E. coli were enumerated in bladder homogenates (homogenization of 12 bladder for living bacteria counting (cfu)), and organ morphology were assessed by histology microscopy. *UTI Infection with 50 μL of E. coli (CFT073) containing […] inoculated in the bladder (in another experiment, the in vivo infection was run similarly, but with slightly less germs 3.3×10^6 or 5×10^6 germs per inoculation).
# The in-vivo anti-adhesion effect of the various substances and extracts of the invention were tested in vivo using a mouse model as described above by giving orally 100 μL of test substance every 3 hours for 24 h prior to inoculating E. coli in the bladder 3 h before measuring E. coli in the bladder. At the end of each assay, mice are euthanized, and their bladder homogenized for E. coli measurements.
# [2] = system: E. coli CFT073 adhesion to human urinary bladder cells (T24); assay: In vitro adhesion test (ADH): adhesion of E. coli to human bladder cells, cfu plate count; format: cell-based; conditions: for reduction of adhesion of E. coli CFT073 on urinary bladder cells: 1 h, adhesion <50% of control = significant, FIG. 1C
# Method: In Vitro Adhesion Test (ADH)—Host-Pathogen-Interaction Assessed by In Vitro Adhesion to Human Cells Adhesion of E. coli to bladder epithelium was established in cell culture. Upon exposure to E. coli an epithelial cell detachment was observed, in a manner similar to in vivo exfoliation. The test was miniaturized by growing the epithelium cell cultures in 96-well plates instead of the classical 24-well plates.
# The test samples were added prior to the start of the adhesion process. Bladder cells grown to confluence in 96-well plates were exposed to E. coli (50 μL of E. coli at 1.4*10^7 cfu/mL in each well) for 1 h. After 1 h, non-adhered E. coli were rinsed off and the adhered E. coli were detached and enumerated by plate counting colony-forming-units (cfu). Enumeration was automatized using a spiral plate count apparatus which further improved the test-variability.
# The E. coli adhesion test was run in absence (given as 100% adhesion) and presence of different concentrations of the agents. […] Human cytotoxicity measurements of the mitochondrial activity (MTT) excluded side-effects of the agents.
# Results are presented in FIG. 1C where relative adhesion (ADH) is expressed in percent (no inhibition control=100%; buffer was used instead of the treatments). All adhesion values<50% are defined as a significant inhibition.
# Anti-adhesive effect is measured in vitro (standard method) using centrifuged extracts (Fu1) of Filipendula ulmaria (F) and Epilobium parviflorum (E) using human epithelial bladder cells (T24 ATCC® HTB-4™ Homo sapiens urinary bladder cell lines).
# [3] = Diuretic effects: urine collected over 24 h in the mouse model; format: in vivo; conditions: 68.8 μg/100 μL orally every 3 h; urine of 6 mice over 24 h
# Excerpt: as §1, with “For the subsequent UTI infection*, the isolate E. coli CFT073 (commercially available at DSM, originating from human UTI) was applied trans-urethral into the bladder and incubated in vivo for a 3 h duration and free movements in normal cages.” left out
# The urines were collected from control groups and from mice treated with different agents. […] Each value has been calculated from the total urine collected from 6 mice.
# [4] = E. coli, 24 h exponential growth, pure substances and cranberry control
# [5] = CHHeNCrL (so in the source); i.e. C3H/HeNCrl), mouse, in vivo
# [6] = as given in the legend of FIG. 1F, read-out: prevention of growth of E. coli (MIC)
Compound,MIC (minimal inhibitory concentration) (E. coli; [4]),"cumulated amounts present in the urine [1, 5]",share of ingested SA found in the urines in this form ([1]; mice),"Observation of microbial culture (E. coli; 0.3125 mg/mL, 24 h)","Observation of microbial culture (E. coli; 0.625 mg/mL, 24 h)","Observation of microbial culture (E. coli; 1.25 mg/mL, 24 h)","Observation of microbial culture (E. coli; 2.5 mg/mL, 24 h)","Observation of microbial culture (E. coli; 5 mg/mL, 24 h)",MIC (E. coli; [6]),reduction of adhesion of E. coli CFT073 on urinary bladder cells ([2]; 2.5 mg/mL),reduction of adhesion of E. coli CFT073 on urinary bladder cells ([2]; 5 mg/mL),further results
O=C(O[C@H]1[C@@H]2OC(=O)c3cc(O)c(O)c(O)c3-c3c4cc(c(O)c3O)Oc3c(cc(O)c(O)c3O)C(=O)O[C@H]3C(O)O[C@@H]5COC(=O)c6cc(O)c(O)c(O)c6-c6c(cc(c(O)c6O)Oc6c(cc(O)c(O)c6O)C(=O)O[C@H]1C(O)O[C@@H]2COC4=O)C(=O)O[C@H]5[C@@H]3OC(=O)c1cc(O)c(O)c(O)c1)c1cc(O)c(O)c(O)c1 (stereo partly shown) [Oenothein B],MIC at 1.3 mg/mL,–,–,–,–,–,–,–,–,–,–,"identification of the compound and its metabolites by LC-MS in the collected urine samples ([1]; mouse, in vivo, po): not identified; Observation of microbial culture (E. coli; 0.65 mg/mL): growth; Observation of microbial culture (E. coli; 1.3 mg/mL): no growth; Observation of microbial culture (E. coli; 1.9 mg/mL): no growth; Observation of microbial culture (E. coli; 2.6 mg/mL): no growth; Observation of microbial culture (E. coli; 3.25 mg/mL): no growth; MIC (E. coli; 24 h, read-out: MIC (minimal inhibitory concentration)): 1300 µg/mL; MIC (E. coli; read-out: prevention of growth of E. coli (MIC)): 1300 µg/mL; number of adhered bacteria E. coli lower than in the controls (E. coli CFT073; 0.065 mg/100 mL, inoculation 3.28×5×10^6 cfu): 75.12%"
"O=C(O)c1ccccc1O [Salicylic acid, salicylic acid]",MIC at 5 mg/mL,84 µg,5.4%,growth,growth,growth,growth,no growth,5000 µg/mL,adhesion reduction efficacy,adhesion reduction efficacy,"MIC (E. coli; 24 h, E. coli, 24 h exponential growth, pure substances and cranberry control, read-out: MIC (minimal inhibitory concentration)): 5000 µg/mL; inhibitory effect on the bacterial infection (adhesion) (E. coli CFT073; 0.05 mg/100 μL by gavage 8 times in 24 h, 5×10^7 cfu E. coli trans-urethral, n=6 mice): −60%; inhibitory effect on the bacterial infection (adhesion) (E. coli CFT073; 3.3×10^6 cfu trans-urethral): −61.3%; reduction of adhesion of E. coli CFT073 on urinary bladder cells ([2]; 1.25 mg/mL): adhesion reduction efficacy; concentration necessary for inhibition of E. coli adhesion to human bladder epithelium ([2]; for 1 hour): 2.5 mg/mL"
"O=C(O)c1cccc(O)c1O [2,3-Dihydroxybenzoic acid, 2,3-dihydroxybenzoic acid]",MIC at 1.25 mg/mL,68 µg,–,growth,growth *,no growth,no growth,no growth,2500 µg/mL,an effect,an effect,"MIC (minimal inhibitory concentration) (E. coli; E. coli, 24 h exponential growth, pure substances and cranberry control, listed as 2): 5000 µg/mL"
"O=C(O)CNC(=O)c1ccccc1O [Salicyluric acid, salicyluric acid]",MIC at 5 mg/mL,–,32.0%,growth,growth,growth,growth *,no growth,2500 µg/mL,–,–,"cumulated amounts present in the urine ([1]; mice, FIG. 3B): 707 µg; MIC (minimal inhibitory concentration) (E. coli; E. coli, 24 h exponential growth, pure substances and cranberry control, listed as 3): 1250 µg/mL"
quercetin-4′-O-glucoside [Spiraeoside],–,–,–,–,–,–,–,–,–,–,–,"% variation versus Negative Control (water), urine [3]: −9.10%; % variation versus Positive Control (Cranberry), urine [3]: −4.20%"
